Laboratory results from PMC12797228 (ACS Infectious Diseases, 2025).
Converted amounts (≈) assume the structure as drawn. “And” between values parts separate entries of the source, which are not always exact repeats. Equal values may be shown once. Read-outs that look alike come from different tables or passages of the source.

Columns and labels:
[1] = biological target: T1, wild-type B. anthracis gyrase (Bacillus anthracis, UniProt A0A6H3A7B1+Q9X3Y6); assay: biochemical; conditions: IC50, inhibition of DNA supercoiling
[2] = tested on: B. anthracis (Ames strain); design: species or system BALB/c mice; conditions: mouse, in vivo
[3] = biological target: T2, wild-type B. anthracis topoisomerase IV (Bacillus anthracis, UniProt A0A6H3AG07+A0AAC8SCF4); assay: biochemical; conditions: IC50, inhibition of DNA decatenation
[4] = biological target: T1, wild-type B. anthracis gyrase; assay: biochemical; conditions: EC50 (concentration that induces 50% maximal DNA cleavage)
B. anthracis = conditions: rabbit, in vivo; cited from earlier work
[5] = tested on: 30-strain panel of B. anthracis; assay: microbe, parasite or virus in culture; type: cell-based, Bacillus anthracis; conditions: for MIC50 / MIC90: Bacillus anthracis
[6] = mouse, in vivo, po, 100 mg/kg
[7] = biological target: T2, wild-type B. anthracis topoisomerase IV; assay: biochemical; conditions: EC50, DNA cleavage
[8] = female, BALB/c, mouse, in vivo
in vitro = conditions: plasma
in vivo = conditions: female, BALB/c, mouse

T2 sequence (A0A6H3AG07 1-807): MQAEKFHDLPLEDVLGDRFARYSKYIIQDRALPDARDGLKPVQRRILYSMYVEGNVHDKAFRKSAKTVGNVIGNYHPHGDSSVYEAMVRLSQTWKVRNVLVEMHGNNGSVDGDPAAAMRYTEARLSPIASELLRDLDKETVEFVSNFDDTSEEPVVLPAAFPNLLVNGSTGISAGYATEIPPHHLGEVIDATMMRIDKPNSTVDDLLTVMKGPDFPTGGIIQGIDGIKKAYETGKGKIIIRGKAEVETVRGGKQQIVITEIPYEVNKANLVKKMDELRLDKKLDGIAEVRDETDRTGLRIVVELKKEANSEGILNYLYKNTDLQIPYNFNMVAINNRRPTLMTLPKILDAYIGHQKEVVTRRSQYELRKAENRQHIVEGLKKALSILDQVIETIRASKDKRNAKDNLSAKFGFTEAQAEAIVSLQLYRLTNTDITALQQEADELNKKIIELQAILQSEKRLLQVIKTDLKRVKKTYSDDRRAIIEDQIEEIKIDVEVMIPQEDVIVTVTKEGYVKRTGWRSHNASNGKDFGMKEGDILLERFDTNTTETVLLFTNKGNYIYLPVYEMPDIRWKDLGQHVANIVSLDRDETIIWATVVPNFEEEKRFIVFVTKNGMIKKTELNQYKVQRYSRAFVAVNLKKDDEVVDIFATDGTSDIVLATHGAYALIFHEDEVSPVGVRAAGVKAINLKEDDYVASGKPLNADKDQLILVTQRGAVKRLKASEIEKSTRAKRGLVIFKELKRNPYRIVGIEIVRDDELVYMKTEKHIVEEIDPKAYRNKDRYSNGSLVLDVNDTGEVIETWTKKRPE
T2 sequence (A0AAC8SCF4 1-654): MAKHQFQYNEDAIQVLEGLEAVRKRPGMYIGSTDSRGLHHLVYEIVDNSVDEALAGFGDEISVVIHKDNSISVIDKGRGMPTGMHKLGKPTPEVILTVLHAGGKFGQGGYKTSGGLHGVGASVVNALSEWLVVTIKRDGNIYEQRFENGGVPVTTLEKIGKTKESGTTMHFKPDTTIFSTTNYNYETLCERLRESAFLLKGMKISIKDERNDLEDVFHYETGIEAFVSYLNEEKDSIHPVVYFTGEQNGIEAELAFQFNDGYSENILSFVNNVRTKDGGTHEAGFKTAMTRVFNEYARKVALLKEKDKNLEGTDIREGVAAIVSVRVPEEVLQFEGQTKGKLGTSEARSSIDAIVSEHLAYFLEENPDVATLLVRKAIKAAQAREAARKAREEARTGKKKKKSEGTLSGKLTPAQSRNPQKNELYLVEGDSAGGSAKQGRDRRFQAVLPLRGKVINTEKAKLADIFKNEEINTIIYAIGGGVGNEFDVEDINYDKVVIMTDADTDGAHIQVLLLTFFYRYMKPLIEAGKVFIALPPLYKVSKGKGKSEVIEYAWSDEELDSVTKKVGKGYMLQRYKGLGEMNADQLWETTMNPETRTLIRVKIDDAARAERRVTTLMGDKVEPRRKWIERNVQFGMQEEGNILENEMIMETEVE
T1 sequence (A0A6H3A7B1 1-823): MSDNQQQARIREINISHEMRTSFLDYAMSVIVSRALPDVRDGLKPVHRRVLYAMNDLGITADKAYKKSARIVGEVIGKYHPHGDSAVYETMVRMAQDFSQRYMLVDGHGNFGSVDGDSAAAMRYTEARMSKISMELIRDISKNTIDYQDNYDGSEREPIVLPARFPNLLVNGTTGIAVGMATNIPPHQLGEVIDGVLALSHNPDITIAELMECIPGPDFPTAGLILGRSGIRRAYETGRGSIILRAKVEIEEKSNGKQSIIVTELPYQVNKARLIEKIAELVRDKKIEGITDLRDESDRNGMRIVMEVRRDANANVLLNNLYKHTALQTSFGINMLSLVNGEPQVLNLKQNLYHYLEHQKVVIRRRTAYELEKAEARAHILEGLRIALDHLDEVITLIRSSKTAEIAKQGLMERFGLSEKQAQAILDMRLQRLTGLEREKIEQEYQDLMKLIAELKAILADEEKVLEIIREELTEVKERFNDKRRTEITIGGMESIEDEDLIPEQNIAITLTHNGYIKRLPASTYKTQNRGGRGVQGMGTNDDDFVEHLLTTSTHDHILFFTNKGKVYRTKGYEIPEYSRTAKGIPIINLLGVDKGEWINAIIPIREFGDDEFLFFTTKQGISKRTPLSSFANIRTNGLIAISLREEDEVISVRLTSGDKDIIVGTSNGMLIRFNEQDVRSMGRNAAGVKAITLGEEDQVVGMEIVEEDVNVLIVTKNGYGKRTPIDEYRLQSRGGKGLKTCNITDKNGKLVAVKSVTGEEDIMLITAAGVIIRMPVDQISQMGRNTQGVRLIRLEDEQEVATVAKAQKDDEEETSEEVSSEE
T1 sequence (Q9X3Y6 whole entry): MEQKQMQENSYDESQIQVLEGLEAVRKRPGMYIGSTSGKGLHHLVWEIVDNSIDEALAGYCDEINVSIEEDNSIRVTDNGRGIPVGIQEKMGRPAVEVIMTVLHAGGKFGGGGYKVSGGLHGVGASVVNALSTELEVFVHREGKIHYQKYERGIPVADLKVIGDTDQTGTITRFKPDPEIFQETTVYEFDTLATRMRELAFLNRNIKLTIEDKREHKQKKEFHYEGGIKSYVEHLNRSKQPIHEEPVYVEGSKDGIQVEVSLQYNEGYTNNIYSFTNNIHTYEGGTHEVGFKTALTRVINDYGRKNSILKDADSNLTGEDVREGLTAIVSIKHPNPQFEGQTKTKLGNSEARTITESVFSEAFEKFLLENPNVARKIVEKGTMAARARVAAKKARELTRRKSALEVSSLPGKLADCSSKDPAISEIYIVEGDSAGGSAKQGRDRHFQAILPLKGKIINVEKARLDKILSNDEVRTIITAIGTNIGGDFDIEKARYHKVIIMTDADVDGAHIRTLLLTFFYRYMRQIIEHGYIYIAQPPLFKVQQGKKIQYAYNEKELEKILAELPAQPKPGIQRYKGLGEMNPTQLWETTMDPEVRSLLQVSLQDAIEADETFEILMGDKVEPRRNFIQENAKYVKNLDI

O=C(O)c1cn(C2CC2)c2cc(N3CCNCC3)c(F)cc2c1=O [Ciprofloxacin, ciprofloxacin]
IC50 [1]: ~118000 nM and 118000 nM | Mice that survived to study termination on day 30 (of 10) [2]: 10 | IC50 [3]: ~178000 nM and 178000 nM

O=c1ccc2ncc(=O)n3c2n1C[C@H]3CN1CCC(NCc2cc3c(cn2)OCCC3)CC1 [Gepotidacin, gepotidacin, reference compound]
IC50 [1]: ~23200 nM and 23200 nM | IC50 [3]: ~200 nM and 200 nM | EC50 [4]: 800 nM and ~800 nM | Rabbits that survived for at least 30 days (B. anthracis): Ten out of 11 | Range of MIC values [5]: 0.12 to 8 µg/mL | MIC50 [5]: 0.5 µg/mL (≈ 1.11 µM) | MIC90 [5]: 0.5 µg/mL (≈ 1.11 µM)

COc1ccc2ncc(F)c(C[C@H](O)[C@H]3OC[C@H](NCc4cnc5c(n4)NC(=O)CO5)CO3)c2n1 [OSUAB-0284, 6-(((trans-2-((S)-2-(3-fluoro-6-methoxy-1,5-naphthyridin-4-yl)-1-hydroxyethyl)-1,3-dioxan-5-yl)amino)methyl)-2H-pyrazino[2,3-b][1,4]oxazin-3(4H)-one]
Adverse events or cage-side observations [6]: No adverse events or cage-side observations were noted | IC50 [1]: ~6300 nM and 6300 nM | Lung total bacterial burden and spore counts compared with the ciprofloxacin group [2]: No significant differences | Survival [2]: 100% and 90% and 90–100% | EC50 [7]: 40 nM and ~40 nM | dose-corrected exposure, higher vs lower dose group [8]: 1.5 fold | Lung AUC0-last ([8]; iv, 10 mg/kg): 4,830 ng*h/mL | Lung AUCinf ([8]; iv, 10 mg/kg): 5,033 ng*h/mL | Lung AUC0-last ([8]; po, 10 mg/kg): 3,314 ng*h/mL | Lung AUCinf ([8]; po, 10 mg/kg): 3,615 ng*h/mL | Lung AUC0-last ([8]; po, 50 mg/kg): 37,227 ng*h/mL | Lung AUCinf ([8]; po, 50 mg/kg): 44,292 ng*h/mL | IC50 [3]: ~100 nM and 100 nM | fraction unbound (in vitro): 0.31 | EC50 [4]: 700 nM and ~700 nM | Kp (in vivo): 0.36 to 0.53 | half-life (in vivo): 2.6 h | bioavailability (in vivo; 10 mg/kg): 80.6% | AUC(0-inf) (in vivo; iv, 10 mg/kg): 11400 ng·h/mL | AUC(0-t) (in vivo; iv, 10 mg/kg): 10800 ng·h/mL | Cmax (in vivo; iv, 10 mg/kg): 17600 ng/mL | Tmax (in vivo; iv, 10 mg/kg): 0.0833 h | half-life (in vivo; iv, 10 mg/kg): 2.6 h | AUC(0-inf) (in vivo; po, 10 mg/kg): 9160 ng·h/mL | AUC(0-t) (in vivo; po, 10 mg/kg): 8470 ng·h/mL | Cmax (in vivo; po, 10 mg/kg): 6280 ng/mL | Tmax (in vivo; po, 10 mg/kg): 0.25 h | half-life (in vivo; po, 10 mg/kg): 2.6 h | AUC(0-inf) (in vivo; po, 50 mg/kg): 70200 ng·h/mL | AUC(0-t) (in vivo; po, 50 mg/kg): 63000 ng·h/mL | Cmax (in vivo; po, 50 mg/kg): 50300 ng/mL | Tmax (in vivo; po, 50 mg/kg): 0.25 h | half-life (in vivo; po, 50 mg/kg): 2.6 h | Range of MIC values [5]: ≤0.03 to 4 µg/mL | MIC50 [5]: 0.06 µg/mL (≈ 0.123 µM) | MIC90 [5]: 0.25 µg/mL (≈ 0.514 µM)
